Converted amounts (≈) assume the structure as drawn. Read-outs that look alike come from different tables or passages of the source.
Experiments:
[1] = test system: E. coli K12 biofilms; assay: Minimum inhibitory concentration (MIC) with the Calgary Biofilm Device (MBEC assay); assay type: cell-based, Escherichia coli K-12; conditions: 24 h, dark, 37 °C, 90% inhibition of growth, OD 600 nm
Method: To screen the effectiveness of EO-OPEs shown above at killing bacteria residing in a biofilm, a Calgary Biofilm Device (CBD), commercially available as the MBEC™ assay was used to grow 96 equivalent biofilms at a time, and to determine the minimum inhibitory concentration (MIC). After incubating the CBD devise in Escherichia coli (E. coli K12) suspension in LB media for 24 hours, biofilms were uniformly formed on the CBD surface. The E. coli biofilms were then incubated with EO-OPEs for 24 hours to obtain their MIC values.
(§1) Escherichia coli K-12 was obtained from the American Type Culture Collection (ATCC #10798), revived in Luria Broth (LB, Sigma) and stored in LB with 20% (v/v) glycerol at −70° C. Stock cultures maintained on agar (2% Difco) plates of LB were used to inoculate 50 mL cultures in liquid LB. E. coli was grown at 37° C. for 18 h. Bacteria were grown as a microbial biofilm using a Calgary Biofilm Device (CBD), commercially available as the MBEC™ assay, featuring 96 pegs protruding down from a microtiter plate lid and fitting into the wells of a standard 96-well microtiter plate. This device allows 96 identical biofilms to grow on the pegs at a time. Biofilms of E. coli were grown in each well using 150 μL of the culture diluted to 1×10^7 CFU (colony forming unit) following previous calibration. The biofilms were grown at 37° C. for 24 h in a shaker at 150 rpm.
The minimum inhibitory concentration (MIC) represents the lowest concentration of antimicrobial required to inhibit the visible growth of a planktonic bacterial population. The MIC was determined using the CBD.^17, 18, 20 Biofilms were formed on the peg surface of the CBD as described above and then transferred to a 96-well microtiter plate containing 200 μL of saline (0.85% NaCl aqueous solution) and washed for 5 min to remove non-adherent bacteria. The biofilms were transferred to a plate containing 200 μL of LB with a gradient concentration of the OPEs (challenge plate). Each concentration was repeated eight times (one row of the plate). The biofilms were then incubated in the dark at 37° C. for 24 h. To determine the MIC, the growth of bacteria was evaluated in the challenge plate after incubation. The optical density of each well was measured at 600 nm and the MIC was calculated for 90% inhibition of growth compared with biofilms grown in LB only.

[2] = Singlet oxygen quantum yield, emission at 1270 nm; assay type: physicochemical; conditions: CD3OD, 2'-acetonaphthone (ΦΔ = 0.79) as actinometer
Excerpt: We carried out transient absorption experiments in methanol and water solutions. […] The lifetime of the transient absorption is in the microsecond range and in each case it is efficiently quenched by O2 indicating the absorption is due to the triplet excited state. By examination of the initial amplitudes of the transient absorption (ΔA, t=0, Table 1), we were able to qualitatively determine the relative triplet yield of these oligomers. […] To substantiate our hypothesis, we carried out studies to observe singlet oxygen emission in deuterated methanol (as the life time of the singlet oxygen is very short in […]).^21 As anticipated, each of the oligomers is capable of sensitizing the formation of singlet oxygen as observed by its characteristic emission at 1270 nm. Of the oligomers studied, (C) and (E) show a higher quantum yield for singlet oxygen generation (ΦΔ) which corroborates well with the photophysical studies described above.
Absorption and fluorescence spectra were recorded on a Cary 100 UV-Vis spectrophotometer and a Photon Technology International spectrofluorometer, respectively. The optical density of the solutions was adjusted to ˜0.7 at the excitation wavelength (355 nm) with the laser energy set at ˜7 mJ. Solutions were purged with argon for 45 min before making transient absorption spectroscopy measurements. Singlet oxygen quantum yields were measured using a Photon Technology International Quantamaster near-IR spectrophotometer equipped with an InGaAs photodiode detector, optical chopper and a lock in amplifier. See Table 1 and FIGS. 1-2 for results.

[3] = test system: S. aureus; assay: Viability of S. aureus cells after UV exposure or dark incubation with oligomer solution; assay type: cell-based; conditions: for killing / deactivation of S. aureus: 10 min UV irradiation, 1 μg/mL printed for EO-OPE-DABCO
Method: FIG. 24 is a graph showing the viability of S. aureus cells with 1 μg/mL and 10 μg/mL of OPE-DABCO and EO-OPE-DABCO solution following exposure to UV light and incubation in dark.
[drawing 28] containing quaternary ammonium pendant groups based on 1,4-diazabicyclo-[2.2.2.]-octane (DABCO). It has been shown that the incorporation of the DABCO group into antimicrobials might amplify its ability to diffuse into the bacterial cell wall due to similarities between this moiety and the lipid layer. [Ref: Kenawy, E. R., S. D. Worley, and R. Broughton, The chemistry and applications of antimicrobial polymers: A state-of-the-art review. Biomacromolecules, 2007. 8(5): p. 1359-1384] Therefore, the binding of antimicrobials to the cytoplasmic membrane of the bacteria is increased by both ionic and van der Waals interactions. [Ref: Kenawy, E. R., S. D. Worley, and R. Broughton, The chemistry and applications of antimicrobial polymers: A state-of-the-art review. Biomacromolecules, 2007. 8(5): p. 1359-1384] These two oligomers have been employed to compare their antimicrobial activity both in the dark and under the UV light in regard to their structure difference.

[4] = test system: E. coli biofilms; assay: Minimum biofilm eradication concentration (MBEC) with the Calgary Biofilm Device; assay type: cell-based, Escherichia coli K-12; conditions: for MBEC (light) / MBEC (dark): E. coli biofilm; for MBEC (light): 1 h near-UV light (300-400 nm); for MBEC (dark): 24 h incubation in the dark
Method: as §1
The Minimum biofilm eradication concentration (MBEC) is the lowest concentration at which bacteria from a biofilm fail to regrow. The MBEC was also measured using the CBD and detailed procedure has been described elsewhere.^17, 18, 20 Biofilms were formed and washed as described above. The biofilms were then transferred to a plate containing saline with a gradient concentration of the OPEs (challenge plate). The samples exposed to light were incubated for 1 h in a LuzChem ORG photoreactor using Hitachi FL8BL-B (λ=300-400 nm) lamps, whereas the samples kept in the dark, were incubated for 24 h in a shaker at 150 rpm. The biofilms were then removed from the challenge plate and washed twice in a plate of saline solution to remove traces of OPEs. The biofilms were placed in a plate containing LB media (recovery plate) and sonicated for 10 min in an ultrasonic cleaner (VWR 97043-964) in order to recover the biofilm in the media solution through vibration. The recovery plate containing the biofilms was incubated in the dark at 37° C. for 24 h. To determine the MBEC, the growth of bacteria was evaluated in the recovery plate after incubation. […] Bacterial grown in a specific well indicates regrowth of planktonic bacteria from surviving biofilm, while clear wells indicate the eradication of the biofilms and the lack of bacteria regrowth.

[5] = Escherichia coli, K12BIOFILMS, read-out: MIC

Row | SMILES | MIC [1, 5] [µg/mL] | MIC [1] [µg/mL] | ΦΔ (quantum yield for singlet oxygen generation) [2] | killing / deactivation of S. aureus [3] [%] | bacteria surviving ([3]; S. aureus, 10 min incubation in the dark) [%] | MBEC (light) [4] [µg/mL] | MBEC (dark) [4] [µg/mL] | deactivation of S. aureus with increasing irradiation time ([3]; UV, irradiation longer than 10 min (FIG. 24)) [%] | killing of E. coli biofilm under near-UV light exposure ([4]; 1 h near-UV, in the concentration range tested) | dark killing of E. coli biofilm ([4]; 24 h dark, concentration range <1000 μg/mL)
1 | CCCCCC[N+]12CC[N+](CCCOc3ccc(C#Cc4ccc(C#Cc5ccc(OCCC[N+]67CC[N+](CCCCCC)(CC6)CC7)cc5)cc4)cc3)(CC1)CC2 [oligomer (B)] | 14 | 14.0 | 0.20 ± 0.02 | 100 | < 10 | 60 | 200 |  |  | 
2 | CCCCCC[N+]12CC[N+](CCCOc3ccc(C#Cc4ccc(C#Cc5ccc(OCCC[N+]67CC[N+](CCCCCC)(CC6)CC7)cc5)s4)cc3)(CC1)CC2 [oligomer (C)] | 15.8 |  | 0.46 ± 0.02 |  |  | 60 | 150 |  |  | 
3 | NC[C@H]1O[C@H](O[C@H]2[C@H](O)[C@@H](O[C@H]3O[C@H](CO)[C@@H](O)[C@H](N)[C@H]3O)[C@H](N)C[C@@H]2N)[C@H](O)[C@@H](O)[C@@H]1O [kanamycin, reference compound] | 11.2 (≈ 23.1 µM) |  |  |  |  |  | >1000 |  |  | 
4 | CCCCCC[N+]12CC[N+](CCCOc3cc(C#Cc4ccc(C(=O)OCC)cc4)c(OCCC[N+]45CC[N+](CCCCCC)(CC4)CC5)cc3C#Cc3ccc(C(=O)OCC)cc3)(CC1)CC2 [oligomer (A)] | 52 | 51.7 | 0.34 ± 0.03 | ~75 |  | >500 | >1000 | ~99 | did not show any killing | did not exhibit any dark killing
